SMILES strings stand for the structures.

Broadly, the IC50 is the midpoint of a concentration-inhibition curve.

The first assay relates to L929 cells. Description: TNF High Throughput Screen (TNF-α driven apoptosis assay). In kind it is cell-based, mouse. The settings on record: Mus musculus, compound at 1 μM, human TNF-α + actinomycin D, read-out: TNFα % Inh. @ 1 μM. From the text:
Description of Table V: The results shown in Table V were obtained using the TNF-α assays performed as described in the protocols entitled “Method for TNF High Throughput Screen” and “Method for VCAM High Throughput Screen”, which are detailed below. These assays measure a cellular response to TNF-α stimulation, and the data published in the table are expressed as percentage inhibitions. Percentage inhibition is computed on a scale of 0 to 100% where 0 percent inhibition means the compound has no effect in the assay (the response is indistinguishable from TNF-α treatment alone), and 100% inhibition means that when the compound is present at the stated concentration, the response in the assay is the same as if TNF-α were not added. These two assays measure two different outcomes of TNF-α treatment, cell death and Vascular Cell Adhesion Molecule (VCAM) expression, and capture two of TNF-α's many biological effects. TNF-α induced apoptosis is a mechanism by which TNF-α production during immune/inflammatory responses can lead to direct cellular and tissue damage. TNF-α VCAM expression in endothelial cells is a response that allows leukocytes to leave the blood and enter a site of immune/inflammatory response. Both of these activities could lead to pathology in immune/inflammatory diseases. In the first column of the table, the percentage inhibition of the TNF-α driven apoptosis assay when the compounds are tested at 1 μM concentration is presented. The second column in the table lists the IC50 for the compound, a standard measure using a dilution series in the assay, and fitting a sigmoidal curve to the resulting dose-response curve. The IC50 is the concentration (derived analytically from the sigmoidal function) at which the compound would inhibit 50% of the response in the assay. The third and fourth column list the corresponding analysis for the TNF-α driven VCAM assay. In Table VI, data corresponding to the data in column 1 of Table V is shown, with human cells replacing the mouse cells used in the high throughput screen. […] As a consequence, the compounds will have use in treating more than one TNF-α mediated condition, and may be selected according to the manner in which the condition manifests. This corresponds to the use of these compounds in the treatment of human disease.
TNF High Throughput Screen.
• 1. Plate 4×10^4 L929 cells in 100 μl of complete EMEM in Costar 96 well plates in PM. • 2. The next day, pretreat with compound, inhibitor and control vehicle for 2 hours. • 3. After 2 hours pretreatment, add 10 μl 5 ng/ml human TNF-α and actinomycin D (40 μg/ml final concentration). • 4. Incubate overnight. • 5. In AM, remove supernatant. • 6. Wash on a plate washer (0.9% NaCl). • 7. Add 100 μl Crystal Violet 0.1% in 20% ETOH. • 8. Incubate at RT for 10 minutes. • 9. Wash on plate washer. • 10. Air dry wells at 37° C. • 11. Add 100 μl of methanol to each well. • 12. Shake plates on orbital shaker and read at 595 nm on plate reader. VCAM High Throughput Screen: Protocol: • 1. Plate Primary human umbilical vein endothelial cells at 1.8×10^4 cells/well in a 96-well tissue culture plate. • 2. Return Plates to 37° C. incubator for 48-72 hours before assay. • 3. On assay day, aspirate wells and add 1804, of endothelial growth cell medium (EGM) to each well. • 4. Add Compound to each well. • 5. Shake plates for 3 minutes. • 6. Incubate plate for 1 hour at 37° C. • 7. Add Tumor Necrosis Factor (TNF) at 1.0 ng/ml final concentration. • 8. Shake plates for 3 minutes. • 9. Incubate plate for 2 hours at 37° C. • 10. Remove plate from incubator and wash plate 3 times with phosphate buffered saline (PBS) using a plate washer. • 11. Add anti-VCAM antibody at 0.5 μg/ml final concentration. • 12. Incubate at 4° C. overnight. • 13. Wash 3 times with PBS on plate washer. • 14. Add goat anti-mouse horseradish peroxidase conjugate. • 15. Incubate at room temperature for one hour. • 16. Wash 3 times with PBS on plate washer. • 17. […]
`COc1cccc(C(=O)N(CCc2c[nH]cn2)C(C(=O)NCCC(c2ccccc2)c2ccccc2)c2cccc(C#N)c2)c1OC` (centres unmarked) [Compound 66]: the inhibition at 1 µM turned out to be 51%.
Same read-out and setting: the same measure for `N#Cc1cccc(C(C(=O)NCCC(c2ccccc2)c2ccccc2)N(CCc2c[nH]cn2)C(=O)Cc2ccc3ccccc3c2)c1` (centres unmarked) [Compound 67]: 52%; for `N#Cc1cccc(C(C(=O)NCC(c2ccccc2)c2ccccc2)N(CCc2c[nH]cn2)C(=O)Cc2c[nH]c3ccc(Br)cc23)c1` (centres unmarked) [Compound 85]: 52%.
On the same count and under the same terms, the same measure for `O=C(c1ccc(Cl)cc1)c1ccccc1C(=O)N(CCCn1ccnc1)C(C(=O)NCC(c1ccccc1)c1ccccc1)c1ccccc1` (centres unmarked) [Compound 61]: 51%.
On the same count and under the same terms, the same measure for `N#Cc1cccc(C(C(=O)NCC(c2ccccc2)c2ccccc2)N(CCc2c[nH]cn2)C(=O)CCCc2c[nH]c3ccccc23)c1` (centres unmarked) [Compound 84]: 52%; for `N#Cc1cccc(C(C(=O)NCC(c2ccccc2)c2ccccc2)N(CCc2c[nH]cn2)C(=O)c2cnc3ccccc3n2)c1` (centres unmarked) [Compound 80]: 53%; for `COc1ccc(CCNC(=O)C(c2cccc(C#N)c2)N(CCc2c[nH]cn2)C(=O)CCC2CCCC2)cc1` (centres unmarked) [Compound 72]: 57%.
As to `N#Cc1cccc(C(C(=O)NCCC(c2ccccc2)c2ccccc2)N(CCc2c[nH]cn2)C(=O)c2ccccc2C(=O)c2ccc(Cl)cc2)c1` (centres unmarked) [Compound 91], the inhibition at 1 µM was determined as 71%.
The same measure, in the same setting: the same measure for `COc1cccc(C(=O)N(CCc2c[nH]cn2)C(C(=O)NCC(c2ccccc2)c2ccccc2)c2cccc(C#N)c2)c1` (centres unmarked) [Compound 86]: 53%; for `COc1ccc(CCNC(=O)C(c2cccc(C#N)c2)N(CCc2c[nH]cn2)C(=O)c2cnc3ccccc3n2)cc1` (centres unmarked) [Compound 74]: 55%; for `COc1ccc(CCNC(=O)C(c2cccc(C#N)c2)N(CCc2c[nH]cn2)C(=O)C(C)C)cc1` (centres unmarked) [Compound 92]: 52%.
Consider `CN(C)CCCN(C(=O)c1ccccc1C(=O)c1ccccc1)C(C(=O)NC(C)(C)CC(C)(C)C)c1cccc(C#N)c1` (centres unmarked) [Compound 63], for which the inhibition at 1 µM came out at 55%.
Regarding `O=C(c1ccccc1)c1ccccc1C(=O)N(CCc1c[nH]cn1)C(C(=O)NCC(c1ccccc1)c1ccccc1)C(c1ccccc1)c1ccccc1` (centres unmarked) [Compound 62], the inhibition at 1 µM turned out to be 59%.

The same assay, now with this note: Mus musculus, human TNF-α + actinomycin D, read-out: TNFα IC50.
For the molecule `CN(C)CCN(C(=O)c1ccccc1C(=O)c1ccccc1)C(C(=O)NCC(c1ccccc1)c1ccccc1)c1ccccc1` (centres unmarked) [Compound 56], the IC50 worked out at 6.63 µM.
Same read-out and setting: the same measure for `O=C(c1ccccc1)c1ccccc1C(=O)N(CCc1c[nH]cn1)C(C(=O)NCC(c1ccccc1)c1ccccc1)c1ccccc1` (centres unmarked) [Compound 5, 2-Benzoyl-N-[(2,2-diphenyl-ethylcarbamoyl)-phenyl-methyl]-N-[2-(1H-imidazol-4-yl)-ethyl]-benzamide]: 0.872 µM; for `N#Cc1cccc(C(C(=O)NC(c2ccccc2)c2ccccc2)N(CCc2c[nH]cn2)C(=O)c2ccccc2C(=O)c2ccccc2)c1` (centres unmarked) [Compound 2]: 5.65 µM; for `O=C(c1ccccc1)c1ccccc1C(=O)N(CCc1c[nH]cn1)C(Cc1cccc(F)c1)C(=O)NCC(c1ccccc1)c1ccccc1` (centres unmarked) [Compound 37]: 2.36 µM.
The same measure, in the same setting: in the case of `N#Cc1cccc(C(C(=O)NCC(c2ccccc2)c2ccccc2)N(CCCc2c[nH]cn2)C(=O)c2ccccc2C(=O)c2ccccc2)c1` (centres unmarked) [Compound 24] it was 1.03 µM.
Consider `CC1=NN(c2nccc(-c3ccccn3)n2)C(=O)C1Sc1ccc(Cl)cc1` (centres unmarked) [Compound 147, 4-(4-Chloro-phenylsulfanyl)-5-methyl-2-(4-pyridin-2-yl-pyrimidin-2-yl)-2,4-dihydro-pyrazol-3-one], for which the IC50 worked out at 0.734 µM.
Take `CN(CC(c1ccccc1)c1ccccc1)C(=O)C(c1ccccc1)N(CCc1c[nH]cn1)C(=O)c1ccccc1C(=O)c1ccccc1` (centres unmarked) [Compound 26, 2-Benzoyl-N-{[(2,2-diphenyl-ethyl)-methyl-carbamoyl]-phenyl-methyl}-N-[2-(1H-imidazol-4-yl)-ethyl]-benzamide]: the IC50 is 3.36 µM.
With `[N-]=[N+]=Nc1cccc(C(C(=O)NCC(c2ccccc2)c2ccccc2)N(CCc2c[nH]cn2)C(=O)c2ccccc2C(=O)c2ccccc2)c1` (centres unmarked) [Compound 40], the IC50 was found to be 1.74 µM.
As to `N#Cc1cccc(C(C(=O)NC(Cc2ccccc2)c2ccccc2)N(CCc2c[nH]cn2)C(=O)c2ccccc2C(=O)c2ccccc2)c1` (centres unmarked) [Compound 3], the IC50 is 1.29 µM.
Same read-out and setting: the same measure for `N#Cc1cccc(C(C(=O)NCC(C2CCCCC2)C2CCCCC2)N(CCc2c[nH]cn2)C(=O)c2ccccc2C(=O)c2ccccc2)c1` (centres unmarked) [Compound 23]: 2.58 µM.
The same measure, in the same setting: in the case of `COc1ccccc1CC(C(=O)NCC(c1ccccc1)c1ccccc1)N(CCc1c[nH]cn1)C(=O)c1ccccc1C(=O)c1ccccc1` (centres unmarked) [Compound 33] it was 2.35 µM.
`N#Cc1cccc(C(C(=O)NCCC(c2ccccc2)c2ccccc2)N(CCc2c[nH]cn2)C(=O)c2ccccc2C(=O)c2ccccc2)c1` (centres unmarked) [Compound 4]: the IC50 is 0.941 µM.
For the molecule `Cc1cccc(C(C(=O)NCC(c2ccccc2)c2ccccc2)N(CCc2c[nH]cn2)C(=O)c2ccccc2C(=O)c2ccccc2)c1` (centres unmarked) [Compound 7], the IC50 is 4.01 µM.
The same measure, in the same setting: the same measure for `Cn1cnc(CCN(C(=O)c2ccccc2C(=O)c2ccccc2)C(C(=O)NCC(c2ccccc2)c2ccccc2)c2cccc(C#N)c2)c1` (centres unmarked) [Compound 13]: 1.37 µM.
The same measure, in the same setting: in the case of `O=C(c1ccccc1)c1ccccc1C(=O)N(CCc1c[nH]cn1)C(Cc1cccc(C(F)(F)F)c1)C(=O)NCC(c1ccccc1)c1ccccc1` (centres unmarked) [Compound 28] it was 5.27 µM; in that of `N#Cc1cccc(C(C(=O)NCCc2ccccc2)N(CCc2c[nH]cn2)C(=O)c2ccccc2C(=O)c2ccccc2)c1` (centres unmarked) [Compound 1], 2.64 µM; in that of `N#Cc1cccc(C(C(=O)NCC(c2ccccc2)c2ccccc2)N(CCc2c[nH]cn2)C(=O)c2ccccc2Cc2ccccc2)c1` (centres unmarked) [Compound 10], 3.68 µM.
Still for that read-out and setting: the same measure for `N#Cc1cccc(C(C(=O)NCC(c2ccccc2)c2ccccc2)N(CCN2CCOCC2)C(=O)c2ccccc2C(=O)c2ccccc2)c1` (centres unmarked) [Compound 11]: 2.89 µM.
With `COc1ccc(C(=O)c2ccccc2C(=O)N(CCc2c[nH]cn2)C(C(=O)NCC(c2ccccc2)c2ccccc2)c2cccc(C#N)c2)cc1` (centres unmarked) [Compound 19], the IC50 worked out at 0.457 µM.
Still for that read-out and setting: the same measure for `Cc1nn(-c2ncnc(-c3ccccn3)n2)c(C)c1Sc1ccc(Cl)cc1` [Compound 141, 2-[4-(4-Chloro-phenylsulfanyl)-3,5-dimethyl-pyrazol-1-yl]-4-pyridin-2-yl-[1,3,5]triazine]: 0.0011 µM; for `O=C(c1ccccc1)c1ccccc1C(=O)N(CCc1c[nH]cn1)C(Cc1ccccc1Cl)C(=O)NCC(c1ccccc1)c1ccccc1` (centres unmarked) [Compound 30]: 2.36 µM.
On the same count and under the same terms, in the case of `N#Cc1cccc(C(C(=O)NCC(c2ccccc2)c2ccccn2)N(CCc2c[nH]cn2)C(=O)c2ccccc2C(=O)c2ccccc2)c1` (centres unmarked) [Compound 39] it was 1.32 µM; in that of `O=C(c1ccccc1)c1ccccc1C(=O)N(CCc1c[nH]cn1)C(Cc1ccccc1F)C(=O)NCC(c1ccccc1)c1ccccc1` (centres unmarked) [Compound 36], 2.15 µM; in that of `N#Cc1cccc(C(C(=O)NCC(c2ccccc2)c2ccccc2)N(CCc2c[nH]cn2)C(=O)c2ccccc2C(=O)OCc2ccccc2)c1` (centres unmarked) [Compound 55], 7.64 µM.

The same assay, now with this note: human TNF-α + actinomycin D, read-out: TNFα IC50.
Consider `Cc1nn(-c2nc(N)nc(-c3ccccn3)n2)c(C)c1CCCc1ccccc1` [Compound 144, 4-[3,5-Dimethyl-4-(3-phenyl-propyl)-pyrazol-1-yl]-6-pyridin-2-yl-[1,3,5]triazin-2-lyamine], for which the 50% inhibitory concentration (IC50) is 0.015 µM.

The values above are taken from patent US9579325B2, “Modulators of TNF-α signaling” (Genzyme Corporation, priority 2000, dated 2017).
